Experimental data reported in patent US20260256925A1, “INDAZOLE DERIVATIVES AS ESTROGEN RECEPTOR DEGRADERS” (REGENTS OF THE UNIVERSITY OF MICHIGAN, priority 2022, published 2026).

Tests used:
ER [1] = target: T1, ER (Homo sapiens, UniProt P03372); experiment: Western blot analysis (compounds B1-B126); type: cell-based; conditions: ER degradation, read-out: Traditional Western Degradation potency (DC50)
T1 construct: endogenous in cells; probably T47D or MCF-7
T1 sequence (P03372 1-595): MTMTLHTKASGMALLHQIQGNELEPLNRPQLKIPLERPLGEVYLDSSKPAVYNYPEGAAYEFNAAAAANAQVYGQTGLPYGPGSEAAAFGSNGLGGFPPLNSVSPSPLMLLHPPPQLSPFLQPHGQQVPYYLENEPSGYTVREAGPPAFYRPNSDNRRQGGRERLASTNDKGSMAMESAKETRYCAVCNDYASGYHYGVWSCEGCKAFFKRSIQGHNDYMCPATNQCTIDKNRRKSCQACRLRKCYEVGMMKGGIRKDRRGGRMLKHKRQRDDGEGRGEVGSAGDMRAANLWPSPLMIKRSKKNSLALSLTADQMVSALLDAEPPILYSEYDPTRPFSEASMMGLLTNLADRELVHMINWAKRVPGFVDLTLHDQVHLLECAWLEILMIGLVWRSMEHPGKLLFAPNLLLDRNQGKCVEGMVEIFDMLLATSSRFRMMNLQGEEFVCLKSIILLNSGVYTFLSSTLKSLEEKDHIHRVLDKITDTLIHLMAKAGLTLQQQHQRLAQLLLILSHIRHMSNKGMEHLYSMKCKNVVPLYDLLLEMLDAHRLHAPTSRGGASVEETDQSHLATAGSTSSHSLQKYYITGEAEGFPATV
Method: Western Blot Analysis. The cells that are treated with the compounds are lysed in Radioimmunoprecipitation Assay Protein Lysis and Extraction Buffer (e.g., 25 mmol/L Tris.HCl, pH 7.6, 150 mmol/L NaCl, 1% Nonidet P-40, 1% sodium deoxycholate, and 0.1% sodium dodecyl sulfate) containing proteinase inhibitor cocktail. Equal amounts of total protein are electrophoresed through 10% SDS-polyacrylamide gels after determination of protein concentration by BCA assay. The separated protein bands are transferred onto PVDF membranes and blotted against different antibodies. The blots are scanned, and the band intensities are quantified (e.g., by using GelQuant.NET software provided by biochemlabsolutions.com). The relative mean intensity of target proteins is expressed after normalization to the intensity of glyceraldehyde-3-phosphate dehydrogenase bands.
Western Blot Analysis. Western blot analysis was performed essentially as described previously. The cells treated with indicated compounds were lysed in Radioimmunoprecipitation Assay Protein Lysis and Extraction Buffer (25 mmol/L Tris.HCl, pH 7.6, 150 mmol/L NaCl, 1% Nonidet P-40, 1% sodium deoxycholate, and 0.1% sodium dodecyl sulfate) containing proteinase inhibitor cocktail (Roche Diagnostics, Mannheim, Germany). Equal amounts of total protein were electrophoresed through 10% SDS-polyacrylamide gels after determination of protein concentration by BCA assay (Fisher Scientific, Pittsburgh, PA). The separated protein bands were transferred onto PVDF membranes (GE Healthcare Life Sciences, Marlborough, MA) and blotted against different antibodies, as indicated. The blots were scanned, and the band intensities were quantified using GelQuant.NET software provided by biochemlabsolutions.com. The relative mean intensity of target proteins was expressed after normalization to the intensity of glyceraldehyde-3-phosphate dehydrogenase bands.

[2] = Cell growth assay, WST-8 (compounds B1-B126); type: cell-based; conditions: 96 h; T47D cell line, WST-8, 4 days; read-out: Cell growth inhibition in T47D cell line IC50
Method in brief: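 Read-out is WST-8 absorbance at 450 nm (2.5 h, 37° C) as a fraction of vehicle control, from three separate repeats. Compound exposure lasted 4 days, starting one day after plating 1500 cells/well.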

ER [3] = target: T1, ER; experiment: In-cell western blot analysis, relative ER percentage (compounds B1-B126); type: cell-based; conditions: ER degradation, 16 hours, read-out: ICW DC50
Method in brief: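 Readout was a two-colour infrared in-cell western of formaldehyde-fixed cells after 16 h compound exposure at 0.5% DMSO, with 40,000 or 10,000 cells/well plated the previous night. Relative ER percentage compares treated wells against untreated/DMSO-treated wells taken as 100%.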

CRBN/DDB1 = target: T2, CRBN/DDB1 (Homo sapiens, UniProt Q96SW2); type: binding; conditions: HTRF, Cy5-labeled Thalidomide probe
T2 construct: purchased Wuxi RP210521GA
T2 sequence (Q96SW2 whole entry): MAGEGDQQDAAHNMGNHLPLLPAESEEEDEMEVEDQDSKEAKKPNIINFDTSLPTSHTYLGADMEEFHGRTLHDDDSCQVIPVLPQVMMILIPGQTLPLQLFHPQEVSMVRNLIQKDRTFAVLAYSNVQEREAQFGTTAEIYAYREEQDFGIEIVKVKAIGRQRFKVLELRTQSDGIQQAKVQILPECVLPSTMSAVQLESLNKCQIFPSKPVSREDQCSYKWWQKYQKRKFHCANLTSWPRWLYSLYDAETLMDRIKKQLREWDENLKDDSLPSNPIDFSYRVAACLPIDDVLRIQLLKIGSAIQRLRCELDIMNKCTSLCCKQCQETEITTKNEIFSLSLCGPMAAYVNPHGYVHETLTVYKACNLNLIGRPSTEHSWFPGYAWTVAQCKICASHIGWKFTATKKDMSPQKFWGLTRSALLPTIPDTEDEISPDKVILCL
T2 sequence (Q16531 whole entry partner): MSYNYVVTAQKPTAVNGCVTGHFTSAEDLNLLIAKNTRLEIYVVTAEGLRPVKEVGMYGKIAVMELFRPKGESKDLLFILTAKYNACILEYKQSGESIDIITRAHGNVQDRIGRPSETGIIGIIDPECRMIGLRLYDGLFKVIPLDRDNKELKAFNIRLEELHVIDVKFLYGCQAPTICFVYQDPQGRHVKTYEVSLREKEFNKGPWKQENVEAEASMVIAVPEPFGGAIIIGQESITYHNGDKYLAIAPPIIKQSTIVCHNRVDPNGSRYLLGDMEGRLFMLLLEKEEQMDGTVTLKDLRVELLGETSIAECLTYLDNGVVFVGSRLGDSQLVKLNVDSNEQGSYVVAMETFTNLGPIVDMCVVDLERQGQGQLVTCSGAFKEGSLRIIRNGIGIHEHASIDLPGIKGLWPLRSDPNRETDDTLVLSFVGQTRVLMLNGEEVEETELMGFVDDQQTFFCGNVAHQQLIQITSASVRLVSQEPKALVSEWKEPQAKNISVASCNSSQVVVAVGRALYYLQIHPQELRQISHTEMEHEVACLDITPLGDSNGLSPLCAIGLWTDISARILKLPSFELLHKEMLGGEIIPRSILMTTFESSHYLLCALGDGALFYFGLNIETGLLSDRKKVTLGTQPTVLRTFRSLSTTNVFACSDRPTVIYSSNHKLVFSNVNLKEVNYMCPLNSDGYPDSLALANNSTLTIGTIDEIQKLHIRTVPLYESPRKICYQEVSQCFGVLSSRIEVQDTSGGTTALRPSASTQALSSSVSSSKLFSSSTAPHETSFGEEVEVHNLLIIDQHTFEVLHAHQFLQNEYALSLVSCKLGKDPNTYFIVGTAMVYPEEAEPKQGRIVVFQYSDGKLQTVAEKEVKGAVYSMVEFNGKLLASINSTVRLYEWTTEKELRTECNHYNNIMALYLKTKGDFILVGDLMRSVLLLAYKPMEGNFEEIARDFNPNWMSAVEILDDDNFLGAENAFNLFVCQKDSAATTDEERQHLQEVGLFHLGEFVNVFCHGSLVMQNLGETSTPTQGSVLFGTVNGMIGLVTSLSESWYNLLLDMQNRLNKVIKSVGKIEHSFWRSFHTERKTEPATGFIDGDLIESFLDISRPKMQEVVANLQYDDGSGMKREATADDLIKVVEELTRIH
Method: The binding potency was determined using HTRF assay technology (Perkin Elmer). Compounds were serially diluted in DMSO and 0.2 μL volume was transferred to white 384-well plate.

Which DC50 (ER [1]) does the source give for `C[C@@H]1Cc2c(ccc3[nH]ncc23)[C@@H](c2c(F)cc(NC3CN(C(=O)[C@H]4CC[C@H](N5Cc6cc7c(cc6C5)C(=O)N(C5CCC(=O)NC5=O)C7=O)CC4)C3)cc2F)N1CC(F)F` (stereo partly drawn) [Compound B24, 6-((1S,4r)-4-(3-((4-((6S,8R)-7-(2,2-difluoroethyl)-8-methyl-6,7,8,9-tetrahydro-3H-pyrazolo[4,3-f]isoquinolin-6-yl)-3,5-difluorophenyl)amino)azetidine-1-carbonyl)cyclohexyl)-2-(2,6-dioxopiperidin-3-yl)-6,7-dihydropyrrolo[3,4-f]isoindole-1,3(2H,5H)-dione] here?
The DC50 was 10 to 100 nM.

And the IC50 [2]?
Its IC50 is 1 to 10 nM.

For `C[C@@H]1Cc2c(ccc3[nH]ncc23)[C@@H](c2c(F)cc(N3CCC(CN4CCN5c6ccc7c(c6OCC5C4)CN(C4CCC(=O)NC4=O)C7=O)CC3)cc2F)N1CC(F)F` (mixture of isomers) [Compound B104, 3-((RS)-7-((1-(4-((6S,8R)-7-(2,2-difluoroethyl)-8-methyl-6,7,8,9-tetrahydro-3H-pyrazolo[4,3-f]isoquinolin-6-yl)-3,5-difluorophenyl)piperidin-4-yl)methyl)-1-oxo-1,3,5,5a,6,7,8,9-octahydro-2H-pyrazino[1′,2′:4,5][1,4]oxazino[2,3-e]isoindol-2-yl)piperidine-2,6-dione], which DC50 (ER [1]) is on record?
Its DC50 is 10 to 100 nM.

And the DC50 (ER [3])?
The DC50 was 10 to 100 nM.

Which DC50 (ER [1]) does the source give for “6-((1R,4s)-4-(4-(4-((6S,8R)-7-(2,2- difluoroethyl)-8-methyl-6,7,8,9- tetrahydro-3H-pyrazolo[4,3- f]isoquinolin-6-yl)-3,5- difluorophenyl)piperidine-1- carbonyl)cyclohexyl)-2-(2,6- dioxopiperidin-3-yl)-6,7- dihydropyrrolo[3,4-f]isoindole- 1,3(2H,5H)-dione [Compound B9]” here?
The DC50 was less than 10 nM.

What about the DC50 (ER [3]) of the same molecule?
Its DC50 is less than 10 nM.

With `C[C@@H]1Cc2c(ccc3[nH]ncc23)[C@@H](c2c(F)cc(N3CCC(CN4CCN5c6cc7c(cc6OC[C@@H]5C4)C(=O)N(C4CCC(=O)NC4=O)C7)CC3)cc2F)N1CC(F)F` (stereo partly drawn) [Compound B16] as the molecule, how does the DC50 (ER [1]) read?
The DC50 was 10 to 100 nM.

What about the IC50 [2] of the same molecule?
The IC50 was less than 1 nM.

With `C[C@@H]1Cc2c(ccc3[nH]ncc23)[C@@H](c2ccc(N3CCC4(CC3)CN(C(=O)CN3Cc5cc6c(cc5C3)C(=O)N(C3CCC(=O)NC3=O)C6=O)CCO4)cn2)N1CC(F)(F)F` (stereo partly drawn) [Compound B111] as the molecule, how does the DC50 (ER [1]) read?
The DC50 was 10 to 100 nM.

And the IC50 [2]?
Its IC50 is 1 to 10 nM.

Which IC50 (CRBN/DDB1) does the source give for `C[C@@H]1Cc2c(ccc3[nH]ncc23)[C@@H](c2c(F)cc(N3CCC4(CCN(C(=O)CN5Cc6cc(F)c(C(=O)N[C@H]7CCC(=O)NC7=O)cc6C5)CC4)CC3)cc2F)N1CC(F)F` [Compound A1, 2-(2-(9-(4-((6S,8R)-7-(2,2-difluoroethyl)-8-methyl-6,7,8,9-tetrahydro-3H-pyrazolo[4,3-f]isoquinolin-6-yl)-3,5-difluorophenyl)-3,9-diazaspiro[5.5]undecan-3-yl)-2-oxoethyl)-N-((S)-2,6-dioxopiperidin-3-yl)-6-fluoroisoindoline-5-carboxamide] here?
Its IC50 is greater than 5000 nM.

Which DC50 (ER [1]) does the source give for `C[C@@H]1Cc2c(ccc3[nH]ncc23)[C@@H](c2c(F)cc(N3CCC(CN4CCN(c5ccc6c(c5)CN(C5CCC(=O)NC5=O)C6=O)CC4)CC3)cc2F)N1CC(F)F` (stereo partly drawn) [Compound B67, 3-(5-(4-((1-(4-((6S,8R)-7-(2,2-difluoroethyl)-8-methyl-6,7,8,9-tetrahydro-3H-pyrazolo[4,3-f]isoquinolin-6-yl)-3,5-difluorophenyl)piperidin-4-yl)methyl)piperazin-1-yl)-1-oxoisoindolin-2-yl)piperidine-2,6-dione] here?
Its DC50 is less than 10 nM.

And the IC50 [2]?
Its IC50 is less than 1 nM.

What about the DC50 (ER [3]) of the same molecule?
The DC50 was less than 10 nM.

Which DC50 (ER [1]) does the source give for `C[C@@H]1Cc2c(ccc3[nH]ncc23)[C@@H](c2c(F)cc(NC3CN(C(=O)[C@H]4CC[C@@H](N5Cc6cc7c(cc6C5)C(=O)N(C5CCC(=O)NC5=O)C7=O)CC4)C3)cc2F)N1CC(F)F` (stereo partly drawn) [Compound B25, 6-((1R,4s)-4-(3-((4-((6S,8R)-7-(2,2-difluoroethyl)-8-methyl-6,7,8,9-tetrahydro-3H-pyrazolo[4,3-f]isoquinolin-6-yl)-3,5-difluorophenyl)amino)azetidine-1-carbonyl)cyclohexyl)-2-(2,6-dioxopiperidin-3-yl)-6,7-dihydropyrrolo[3,4-f]isoindole-1,3(2H,5H)-dione] here?
Its DC50 is less than 10 nM.

And the IC50 [2]?
Its IC50 is 1 to 10 nM.

With `C[C@@H]1Cc2c(ccc3[nH]ncc23)[C@@H](c2c(F)cc(N3CCC(CN4CCC(N5Cc6cc7c(cc6C5)C(=O)N(C5CCC(=O)NC5=O)C7)CC4)CC3)cc2F)N1CC(F)F` (stereo partly drawn) [Compound B71, 3-(6-(1-((1-(4-((6S,8R)-7-(2,2-difluoroethyl)-8-methyl-6,7,8,9-tetrahydro-3H-pyrazolo[4,3-f]isoquinolin-6-yl)-3,5-difluorophenyl)piperidin-4-yl)methyl)piperidin-4-yl)-1-oxo-3,5,6,7-tetrahydropyrrolo[3,4-f]isoindol-2(1H)-yl)piperidine-2,6-dione] as the molecule, how does the DC50 (ER [1]) read?
Its DC50 is 10 to 100 nM.

With `C[C@@H]1Cc2c(ccc3[nH]ncc23)[C@@H](c2c(F)cc(N3CCC(CN4CCC(N5Cc6cc7c(cc6C5)C(=O)N(C5CCC(=O)NC5=O)C7=O)CC4)CC3)cc2F)N1CC(F)F` (stereo partly drawn) [Compound B70, 6-(1-((1-(4-((6S,8R)-7-(2,2-difluoroethyl)-8-methyl-6,7,8,9-tetrahydro-3H-pyrazolo[4,3-f]isoquinolin-6-yl)-3,5-difluorophenyl)piperidin-4-yl)methyl)piperidin-4-yl)-2-(2,6-dioxopiperidin-3-yl)-6,7-dihydropyrrolo[3,4-f]isoindole-1,3(2H,5H)-dione] as the molecule, how does the DC50 (ER [1]) read?
The DC50 was 10 to 100 nM.

With `C[C@@H]1Cc2c(ccc3[nH]ncc23)[C@@H](c2c(F)cc(N3CCC4(CC3)CN(C(=O)CN3Cc5cc6c(cc5C3)C(=O)N(C3CCC(=O)NC3=O)C6=O)C4)cc2F)N1CC(F)F` (stereo partly drawn) [Compound B4, 6-(2-(7-(4-((6S,8R)-7-(2,2-difluoroethyl)-8-methyl-6,7,8,9-tetrahydro-3H-pyrazolo[4,3-f]isoquinolin-6-yl)-3,5-difluorophenyl)-2,7-diazaspiro[3.5]nonan-2-yl)-2-oxoethyl)-2-(2,6-dioxopiperidin-3-yl)-6,7-dihydropyrrolo[3,4-f]isoindole-1,3(2H,5H)-dione] as the molecule, how does the DC50 (ER [1]) read?
Its DC50 is less than 10 nM.

With `C[C@@H]1Cc2c(ccc3[nH]ncc23)[C@@H](c2c(F)cc([C@H]3CC[C@@H](C(=O)N4CCC(N5Cc6cc7c(cc6C5)C(=O)N(C5CCC(=O)NC5=O)C7=O)CC4)CC3)cc2F)N1CC(F)F` (stereo partly drawn) [Compound B1, 6-(1-((1R,4s)-4-(4-((6S,8R)-7-(2,2-difluoroethyl)-8-methyl-6,7,8,9-tetrahydro-3H-pyrazolo[4,3-f]isoquinolin-6-yl)-3,5-difluorophenyl)cyclohexane-1-carbonyl)piperidin-4-yl)-2-(2,6-dioxopiperidin-3-yl)-6,7-dihydropyrrolo[3,4-f]isoindole-1,3(2H,5H)-dione] as the molecule, how does the DC50 (ER [1]) read?
Its DC50 is less than 10 nM.

Which DC50 (ER [1]) does the source give for `C[C@@H]1Cc2c(ccc3[nH]ncc23)[C@@H](c2c(F)cc(N3CCC(CN4CCN(c5ccc6c(c5)C(=O)N(C5CCC(=O)NC5=O)C6=O)CC4)CC3)cc2F)N1CC(F)F` (stereo partly drawn) [Compound B65, 5-(4-((1-(4-((6S,8R)-7-(2,2-difluoroethyl)-8-methyl-6,7,8,9-tetrahydro-3H-pyrazolo[4,3-f]isoquinolin-6-yl)-3,5-difluorophenyl)piperidin-4-yl)methyl)piperazin-1-yl)-2-(2,6-dioxopiperidin-3-yl)isoindoline-1,3-dione] here?
The DC50 was 10 to 100 nM.
